# How the values were obtained:
# [1] = tested on: MT2; assay: Cytotoxicity against human MT2 cells after 4 days by XTT assay; format: cell-based; settings: mt2, 96 h
# [2] = tested on: Human immunodeficiency virus 1; assay: Antiviral activity against HIV1 3B in human MT2 cells assessed as reduction of virus-induced cytopathogenicity; format: functional, organism-based; settings: Human immunodeficiency virus 1, 3B
# [3] = tested on: Human immunodeficiency virus 1; assay: Antiviral activity against HIV1 3B in human MT2 cells assessed as inhibition of p24 antigen level after 4 days by ELISA; format: functional, organism-based; settings: Human immunodeficiency virus 1, 3B, MT2, 96 h
# [4] = Selectivity index, ratio of CC50 for human MT2 cells to EC50 for HIV1 3B; format: toxicity, cell-based; settings: read-out: Ratio CC50/IC50
# [5] = Inhibition of HIV1 3B gp41 six-helix bundle formation after 30 mins by native-polyacrylamide gel electrophoresis; parameters: species or system Human immunodeficiency virus 1
# [6] = tested on: Human immunodeficiency virus 1; assay: Antiviral activity against HIV1 3B in human MT2 cells assessed as inhibition of cell-cell fusion; format: functional, organism-based; settings: Human immunodeficiency virus 1, 3B
Compound,CC50 [1] [µM],IC50 [2] [µM],IC50 [3] [µM],selectivity ratio [4],IC50 [5] [µM],IC50 [6] [µM]
Cc1ccc(C)n1-c1ccc(O)c(C(=O)O)c1,334,55.5,28.2,11.8,29.4,43.2
Cc1ccc(C)n1-c1ccc(-c2ccc(CCC(=O)O)cc2)c(C(=O)O)c1,227,13.1,8.3,27.4,21.8,8.3
Cc1ccc(C)n1-c1ccc(-c2ccccc2)c(C(=O)O)c1,290,37.9,17.8,16.3,29,59.2
Cc1ccc(C)n1-c1ccc(-c2ccc(C(=O)O)cc2)c(C(=O)O)c1,355,33.9,25.6,13.8,20.5,26
Cc1ccc(C)n1-c1ccc(-c2ccc(/C=C/C(=O)O)cc2)c(C(=O)O)c1,255,7.71,4.91,,20.7,3.6
Cc1ccc(-c2ccc(-n3c(C)ccc3C)cc2C(=O)O)cc1,280,79.5,18.2,15.4,21.3,51.6
